# Measured values as given in ChEMBL document CHEMBL4392850, “Cu-mediated synthesis of differentially substituted diazepines as AChE inhibitors; validation through molecular docking and Lipinski's filter to develop novel anti-neurodegenerative drugs” (Bioorg Med Chem Lett, 2019).
# Experiments:
# [1] = biological target: T1, Acetylcholinesterase (Homo sapiens, UniProt P22303); test: Inhibition of AChE in erythrocytes (unknown origin) pre-incubated for 20 mins before acetylthiocholine substrate addition and measured over 30 mins by DTNB dye based spectrophotometry; format: cell-based
# [2] = Antioxidant activity assessed as DPPH radical scavenging activity incubated for 15 to 20 mins by UV-visible spectrometry relative to untreated control; format: functional
# [3] = Antioxidant activity assessed as DPPH radical scavenging activity incubated for 15 to 20 mins by UV-visible spectrometry; format: functional
# [4] = biological target: T1, Acetylcholinesterase; test: Inhibition of AChE in erythrocytes (unknown origin) pre-incubated for 20 mins before acetylthiocholine substrate addition and measured over 30 mins by DTNB dye based spectrophotometry relative to untreated control; format: cell-based
# T1 sequence (P22303 whole entry): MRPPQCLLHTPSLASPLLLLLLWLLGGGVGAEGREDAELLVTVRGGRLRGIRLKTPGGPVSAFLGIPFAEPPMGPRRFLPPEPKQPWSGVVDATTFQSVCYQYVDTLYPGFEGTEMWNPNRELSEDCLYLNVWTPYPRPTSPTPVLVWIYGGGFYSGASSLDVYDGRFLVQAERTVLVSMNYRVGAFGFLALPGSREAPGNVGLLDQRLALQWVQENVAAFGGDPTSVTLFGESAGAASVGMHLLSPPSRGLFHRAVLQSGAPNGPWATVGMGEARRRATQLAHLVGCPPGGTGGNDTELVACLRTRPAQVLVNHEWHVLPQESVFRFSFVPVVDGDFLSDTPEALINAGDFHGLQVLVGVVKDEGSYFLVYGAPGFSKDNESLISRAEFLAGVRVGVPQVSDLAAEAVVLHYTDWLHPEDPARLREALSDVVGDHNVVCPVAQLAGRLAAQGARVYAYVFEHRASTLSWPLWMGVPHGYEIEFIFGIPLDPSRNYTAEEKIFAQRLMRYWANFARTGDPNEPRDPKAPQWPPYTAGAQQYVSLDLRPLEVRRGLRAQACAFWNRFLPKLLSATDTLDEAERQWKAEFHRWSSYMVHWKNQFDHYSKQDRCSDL
SMILES,inhibition [1],inhibition [2] [%],IC50 [3] [nM],inhibition [4] [%],IC50 [1] [nM]
Cn1c(=O)c2c(ncn2C)n(C)c1=O,Dose-dependent effect,,,,
Fc1ccc(-c2nnn3c2C2c4ccccc4CCN2Cc2ccccc2-3)cc1 (stereo unspecified),Dose-dependent effect,,,,
Cc1ccc(-c2nnn3c2C2c4ccccc4CCN2Cc2ccccc2-3)cc1 (stereo unspecified),Dose-dependent effect,,,,
Brc1ccc(-c2nnn3c2C2c4ccccc4CCN2Cc2ccccc2-3)cc1 (stereo unspecified),Dose-dependent effect,96.1,86.2,< 95,250
c1ccc(-c2nnn3c2C2CCCN2Cc2cc4c(cc2-3)OCO4)cc1 (stereo unspecified),Dose-dependent effect,,,,
c1ccc(-c2nnn3c2C2c4ccccc4CCN2Cc2ccccc2-3)cc1 (stereo unspecified),Dose-dependent effect,,,,
c1ccc(-c2nnn3c2C2CCCCN2Cc2cc4c(cc2-3)OCO4)cc1 (stereo unspecified),Dose-dependent effect,92.3,94.8,,
O=C1O[C@H]([C@@H](O)CO)C(O)=C1O [ASCORBIC ACID],,80.2,1250,,
c1ccc(-c2nnn3c2C2c4ccccc4CCN2Cc2cc4c(cc2-3)OCO4)cc1 (stereo unspecified),Dose-dependent effect,,,,
